Values quoted from earlier work as cited in patent publication US4658014A, “Synthetic peptides with calcitonin-like activity” (priority 1985, dated 1987).

Conditions: versus natural eel calcitonin

[Asu^1,7 ] eel calcitonin
activity relative to the naturally occuring hormone with the disulfide bond: comparable activity
